Reference: patent US20240131028A1, “CHEMOVACCINATION AGAINST PLASMODIUM INFECTION WITH SELECTIVE PLASMEPSIN X INHIBITORS” (Merck Sharp & Dohme LLC, priority 2021, published 2024)

Each compound was assayed on ring stage parasites (Pf) (assay: Parasite lactate dehydrogenase (LDH) growth assay (Parasite Assay, PfLDH Assay)). Conditions: Plasmodium falciparum, 72 h, Table 3; 72 hours growth, LDH readout; read-out: EC50.
Format: cell-based, P. falciparum

Point of comparison: COc1cccc2c1[C@@H](NC(=O)[C@H]1C[C@@H]1CN1C(=N)NC(C)(C)CC1=O)CC(C)(C)O2 [Example 73], EC50 192 nM. Against it:
- COCC[C@H]([C@H]1C[C@@H]1C(=O)N[C@@H]1CC(C)(C)Oc2cc(Cl)ccc21)N1C(=N)NC(C)(C)CC1=O [Example 89B] — 8.7-fold lower, 22 nM
- CC1[C@H](C(c2cccnc2)N2C(=N)NC(C)(C)CC2=O)[C@H]1C(=O)N[C@H]1CC(C)(C)Oc2ccccc21 (stereo partly shown) [Example 57B] — 1.9-fold lower, 100 nM
- COCC[C@H]([C@H]1C[C@@H]1C(=O)NC1CC(C)(C)Oc2ccc(OC(F)(F)F)cc21)N1C(=N)NC(C)(C)CC1=O (stereo partly shown) [Example 126A] — 41-fold lower, 4.7 nM
- COCC[C@H]([C@H]1C[C@@H]1C(=O)N[C@H]1CC(C)(C)Oc2cccc(OC)c21)N1C(=N)NC(C)(C)CC1=O [Example 74B] — 62-fold lower, 3.1 nM
- CC[C@]1(C)CC(=O)N([C@H](CCOC)[C@H]2C[C@@H]2C(=O)NC2CC(C)(C)Oc3ccc(OC(F)(F)F)cc32)C(=N)N1 (stereo partly shown) [Example 129A] — 150-fold lower, 1.3 nM
- COCC[C@H]([C@H]1C[C@@H]1C(=O)N[C@@H]1CC(C)(C)Oc2cc(C)c(C)cc21)N1C(=N)NC(C)(C)CC1=O [Example 138B] — 11-fold lower, 18 nM
- CC1(C)CC(=O)N(C[C@H]2C[C@@H]2C(=O)N[C@H]2CC(C)(C)Oc3cccc(OC(F)(F)F)c32)C(=N)N1 [Example 118] — 3-fold lower, 63 nM
- CC1(C)CC(=O)N([C@H](c2cccnc2)[C@H]2C[C@@H]2C(=O)N[C@H]2CC(C)(C)Oc3ccc(Cl)cc32)C(=N)N1 [Example 120] — 190-fold lower, 1 nM
- COCC[C@H]([C@H]1C[C@@H]1C(=O)N[C@@H]1CC(C)(C)Oc2ccc(C(F)(F)F)cc21)N1C(=N)NC(C)(C)CC1=O [Example 110A] — 9.1-fold lower, 21 nM
- CCC1(CC)CC(=O)N([C@H](c2cccnc2)[C@H]2C[C@@H]2C(=O)N[C@H]2c3ccccc3OC(C)(C)[C@H]2O)C(=N)N1 [Example 11B] — 8-fold lower, 24 nM
- CCC1(CC)CC(=O)N(C[C@H]2C[C@@H]2C(=O)N[C@H](C)c2ccccc2)C(=N)N1 [Example 3B] — within 1.5-fold, 151 nM
- COCC[C@H]([C@H]1C[C@@H]1C(=O)NC1CC(C)(C)Oc2ccccc21)N1C(=N)NC(C)(C)CC1=O (stereo partly shown) [Example 23A] — 12-fold lower, 16 nM
- CC1(C)CC(=O)N([C@H](c2cncc(Cl)c2)[C@H]2C[C@@H]2C(=O)N[C@H]2CC(C)(C)Oc3ccccc32)C(=N)N1 [Example 58B] — 190-fold lower, 1 nM
- CC1(C)CC(=O)N(C[C@H]2C[C@@H]2C(=O)N[C@H]2CC(C)(C)Oc3ccc(Cl)cc32)C(=N)N1 [Example 95] — 1.7-fold lower, 110 nM
- CCC1(CC)CC(=O)N(C[C@H]2C[C@@H]2C(=O)N[C@@H]2CCOc3ccccc32)C(=N)N1 [Example 4B] — 7.4-fold lower, 26 nM
- CC1(C)CC(=O)N([C@H](c2cccnc2)[C@H]2C[C@@H]2C(=O)N[C@H]2CC(C)(C)Oc3c(C(F)(F)F)ccc(F)c32)C(=N)N1 [Example 115B] — 190-fold lower, 1 nM
- CCC1(CC)CC(=O)N(CC2C(C(=O)N[C@H]3C[C@H](C(F)(F)F)Oc4ccccc43)C2(C)C)C(=N)N1 (stereo partly shown) [Example 31B] — within 1.5-fold, 213 nM
- CC1(C)CC(=O)N([C@H](c2cccc(C#N)c2)[C@H]2C[C@@H]2C(=O)N[C@@H]2c3ccccc3OC(C)(C)[C@H]2O)C(=N)N1 [Example 51] — 36-fold lower, 5.3 nM
- CC1(C)CC(=O)N(C[C@H]2C[C@@H]2C(=O)N[C@H]2CC(C)(C)Oc3ccc(F)cc32)C(=N)N1 [Example 71] — 1.5-fold lower, 125 nM
- CCC1(CC)CC(=O)N([C@H](c2cccnc2)[C@@H]2[C@@H](C(=O)N[C@H]3CC(C)(C)Oc4ccccc43)C2(C)C)C(=N)N1 [Example 48A] — 71-fold lower, 2.7 nM
- CC1(C)CC(=O)N(C(c2cccnc2)[C@@H]2[C@@H](C(=O)N[C@H]3CC(C)(C)Oc4ccccc43)C2(C)C)C(=N)N1 (stereo partly shown) [Example 49A] — 9.6-fold lower, 20 nM
- COCC[C@H]([C@H]1C[C@@H]1C(=O)N[C@H]1CC(C)(C)Oc2ccc(C(F)(F)F)cc21)N1C(=N)NC(C)(C)CC1=O [Example 110B] — 27-fold lower, 7.2 nM
- CCC1(CC)CC(=O)N([C@H](c2cccnc2)[C@H]2C[C@@H]2C(=O)N[C@@H]2c3ccccc3C[C@@H]2O)C(=N)N1 [Example 10] — 7.1-fold lower, 27 nM
- COCC[C@H]([C@H]1C[C@@H]1C(=O)NC1CC(C)(C)Oc2c(Cl)cc(Cl)cc21)N1C(=N)NC(C)(C)CC1=O (stereo partly shown) [Example 106A] — 26-fold lower, 7.4 nM
- CCC1(CC)CC(=O)N(C[C@H]2C[C@@H]2C(=O)N[C@H]2CC(C)(C)Oc3ccc(F)cc32)C(=N)N1 [Example 7A] — within 1.5-fold, 135 nM
- COCC[C@H]([C@H]1C[C@@H]1C(=O)N[C@H]1CC(C)(C)Oc2cccc(F)c21)N1C(=N)NC(C)(C)CC1=O [Example 88A] — 37-fold lower, 5.2 nM
- COc1cccc2c1C(NC(=O)[C@H]1C[C@@H]1[C@@H](c1cccnc1)N1C(=N)NC(C)(C)CC1=O)CC(C)(C)O2 (stereo partly shown) [Example 96A] — 71-fold lower, 2.7 nM
- COCC[C@H]([C@H]1C[C@@H]1C(=O)N[C@@H]1CC(C)(C)Oc2cccc(OC(F)(F)F)c21)N1C(=N)NC(C)(C)CC1=O [Example 107B] — 17-fold lower, 11 nM
- CCC1(CC)CC(=O)N([C@H](c2cccnc2)[C@H]2C[C@@H]2C(=O)N[C@@H]2c3ccccc3OC(C)(C)[C@H]2O)C(=N)N1 [Example 11A] — 47-fold lower, 4.1 nM
- CC[C@]1(C)CC(=O)N([C@H](c2cncc(F)c2)[C@H]2C[C@@H]2C(=O)N[C@@H]2c3ccccc3OC(C)(C)[C@H]2O)C(=N)N1 [Example 66] — 74-fold lower, 2.6 nM
- CCC1(C)CC(NC(=O)[C@H]2C[C@@H]2[C@@H](CCOC)N2C(=N)NC(C)(C)CC2=O)c2ccccc2O1 (stereo partly shown) [Example 75A] — 23-fold lower, 8.2 nM

Same assay, conditions: Plasmodium falciparum, 72 h, Table 4; 72 hours growth, LDH readout; read-out: EC50 (Table 4)

Compound CCC1(CC)CC(=O)N([C@H](CCOC)[C@H]2C[C@@H]2C(=O)NC2CC(C)(C)Oc3cccc(Cl)c32)C(=N)N1 (stereo partly shown) [Example 149A] has an EC50 of 1 nM.

Same assay, conditions: Table 3; 72 hours growth, LDH readout; read-out: EC50

Point of comparison: CC1C[C@H](NC(=O)[C@H]2C[C@@H]2CN2C(=N)NC(C)(C)CC2=O)c2cc(F)ccc2O1 (stereo partly shown) [Example 139B], EC50 130 nM. Against it:
- CC1(C)CC(=O)N(C(c2cccnc2)[C@@H]2[C@@H](C(=O)N[C@H]3CC(C)(C)Oc4ccccc43)C2(C)C)C(=N)N1 (stereo partly shown) [Example 49B] — 9.3-fold lower, 14 nM
- COCC[C@H]([C@H]1C[C@@H]1C(=O)NC1CC(C)(C)Oc2c(F)cccc21)N1C(=N)NC(C)(C)CC1=O (stereo partly shown) [Example 111B] — 8.7-fold lower, 15 nM
- CC[C@@]1(C)CC(=O)N(C(c2cncc(F)c2)[C@H]2C[C@@H]2C(=O)N[C@H]2CC(C)(C)Oc3ccc(F)cc32)C(=N)N1 (stereo partly shown) [Example 69A] — 130-fold lower, 1 nM
- COCC[C@H]([C@H]1C[C@@H]1C(=O)NC1CC(C)(C)Oc2ccccc21)N1C(=N)NC(C)(C)CC1=O (stereo partly shown) [Example 23B] — 8.7-fold lower, 15 nM
- CCC1(CC)CC(=O)N(C[C@H]2C(C)[C@@H]2C(=O)N[C@H]2C[C@@H](C(F)(F)F)Oc3ccccc32)C(=N)N1 (stereo partly shown) [Example 28B] — 9.3-fold lower, 14 nM
- CC(C)C1(C)CC(NC(=O)[C@H]2C[C@@H]2CN2C(=N)NC(C)(C)CC2=O)c2ccccc2O1 (single isomer, unassigned) [Example 79C] — 2.2-fold higher, 289 nM
- CC1(C)CC(=O)N([C@H](c2cccnc2)[C@H]2C[C@@H]2C(=O)N[C@@H]2CC(C)(C)Oc3cccc(F)c32)C(=N)N1 [Example 86B] — 46-fold lower, 2.8 nM
- CC[C@]1(C)CC(=O)N([C@H](CCOC)[C@H]2C[C@@H]2C(=O)NC2CC(C)(C)Oc3ccc(F)cc32)C(=N)N1 (single isomer, unassigned) [Example 130B] — 54-fold lower, 2.4 nM
- COCC[C@H]([C@H]1C[C@@H]1C(=O)NC1CC(C)(C(C)C)Oc2ccccc21)N1C(=N)NC(C)(C)CC1=O (single isomer, unassigned) [Example 80B] — 20-fold lower, 6.6 nM
- CC1(C)CC(=O)N([C@H](c2cccnc2)[C@H]2C[C@@H]2C(=O)NC2CC(C)(C)Oc3c(F)cccc32)C(=N)N1 (stereo partly shown) [Example 93B] — 54-fold lower, 2.4 nM
- CC1(C)CC(=O)N([C@H](c2cccnc2)[C@H]2C[C@@H]2C(=O)NC2CC(C)(C)Oc3ccc(F)cc32)C(=N)N1 (single isomer, unassigned) [Example 98A] — 140-fold lower, 0.9 nM
- CCC1(CC)CC(=O)N(C(c2cccnc2)[C@H]2C(C)[C@@H]2C(=O)N[C@H]2C[C@H](C(F)(F)F)Oc3ccccc32)C(=N)N1 (single isomer, unassigned) [Example 55A] — 160-fold lower, 0.8 nM
- CC[C@@]1(C)CC(=O)N(C(c2cncc(F)c2)[C@H]2C[C@@H]2C(=O)N[C@H]2CC(C)(C)Oc3ccc(F)cc32)C(=N)N1 (stereo partly shown) [Example 69C] — 160-fold lower, 0.8 nM
- CC1(C)CC(=O)N(C(c2cccc(C#N)c2)[C@H]2C[C@@H]2C(=O)NC2CC(C)(C)Oc3ccc(F)cc32)C(=N)N1 (stereo partly shown) [Example 53B] — 62-fold lower, 2.1 nM
- COCC[C@H]([C@H]1C[C@@H]1C(=O)NC1CC(C)(C)Oc2c(Cl)cc(Cl)cc21)N1C(=N)NC(C)(C)CC1=O (stereo partly shown) [Example 106B] — 13-fold lower, 10 nM
- CCC1(CC)CC(=O)N(C[C@H]2C(C)[C@@H]2C(=O)N[C@@H]2c3ccccc3OC(C)(C)[C@H]2O)C(=N)N1 (single isomer, unassigned) [Example 30B] — 17-fold lower, 7.7 nM
- CC[C@]1(C)CC(=O)N([C@H](CCOC)[C@H]2C[C@@H]2C(=O)NC2CC(C)(C)Oc3ccc(C(F)(F)F)cc32)C(=N)N1 (single isomer, unassigned) [Example 127B] — 50-fold lower, 2.6 nM

Same assay, conditions: Table 4; 72 hours growth, LDH readout; read-out: EC50 (Table 4)

Point of comparison: CCC1(CC)CC(=O)N(C(CC(C)OC)[C@H]2C[C@@H]2C(=O)N[C@H]2CC(C)(C)Oc3ccccc32)C(=N)N1 (single isomer, unassigned) [Example 142D], EC50 115 nM. Against it:
- CCC1(CC)CC(=O)N([C@H](CCOC)[C@H]2C[C@@H]2C(=O)NC2CC(C)(C)Oc3cccc(Cl)c32)C(=N)N1 (stereo partly shown) [Example 149B] — 96-fold lower, 1.2 nM
- CCC1(CC)CC(=O)N(C(CC(C)OC)[C@H]2C[C@@H]2C(=O)N[C@H]2CC(C)(C)Oc3ccccc32)C(=N)N1 (single isomer, unassigned) [Example 142C] — 1.8-fold higher, 205 nM
- CCC1(CC)CC(=O)N(C(CC(C)OC)[C@H]2C[C@@H]2C(=O)N[C@@H]2CC(C)(C)Oc3ccccc32)C(=N)N1 (single isomer, unassigned) [Example 143A] — 25-fold lower, 4.6 nM
